Results as given in patent publication US11035008B2, “Biomarkers for cancer” (BERGENBIO ASA, priority 2015, dated 2021).

What was measured:
[1] = tested on: MOLM13 systemic xenograft; test: Leukemic (CD33/CD45-positive) cells in MOLM13 systemic xenograft model; assay type: in vivo, mice; settings: 50 mg/kg for 4 days
Protocol: (§1) Material from an in vivo MOLM13 systemic model was also evaluated by flow cytometry. Expression of the previously evaluated biomarkers was examined in cells isolated from bone marrows and spleens of animals with systemic AML disease (MOLM13, inoculated for 7 days prior to treatment) treated with BGB324 at 50 mg/kg for 4 days. The spleens analysed were from the same study that was analysed by microarray, as mentioned above. The bone marrows were from an identical study that was done at a later time point to get more material for flow analyses.
Cells harvested from spleens, blood and bone marrows of the animals were stained with anti CD33 and CD45 antibodies, to determine if systemic disease was established. CD33/CD45-positive cells were found in spleens (around 10-15%), bone marrows (35-40%) and in the blood (2-6%) of the animals, confirming that the disease was established.

[2] = tested on: Axl(Y779); test: pAxl(Y779) in blood of healthy volunteers treated ex vivo; assay type: cell-based, human; settings: blood of two healthy volunteers, 1 μM, 30 minutes ex vivo
Protocol: Staining of Blood for Flow Cytometry, General Protocol: • Human blood from healthy donors was collected in the presence of sodium citrate and mixed with 20 volumes of pre-warmed BD phosflow lyse/fix buffer (diluted to 1× in destilled water), followed by incubation in 37° C. water bath for 10 minutes. Cells were spun at 500 g for 8 minutes and washed once with PBS. • Cells were permebilized by adding 70% MeOH followed by 30 min incubation on ice. Unless processed immediately, samples were at this point stored in MeOH at −20° C. for up to 4 weeks. • Staining of permeabilized cells: • Cells were spun at 600 g, washed twice and resuspended in IB. Cells were aliquoted into volums corresponding to 100 ul collected blood (before dilution), and stained as described above (section two in “Staining of cells for flow cytometry, general protocol”). • All washing and incubation steps were done on a spinning wheel or gentle shaker.
Blood samples from BGB324-treated individuals were not available, so BGB324-treatment was simulated by incubating fresh unfixed blood samples with 1 μM BGB324 for 30 minutes before fixation. Thereafter, samples were fixed, permebealized, and stained for flow with pAxl and pAkt antibodies to examine whether we could see a response to BGB324-treatment in these biomarkers (see FIG. 7). Phosphatase-treated cells were included as a negative staining control. […]

[3] = tested on: totAxl; test: Total Axl in AML cell panel, long-term treatment, flow cytometry; assay type: cell-based, human
Protocol: (§2) Staining of Cells for Flow Cytometry, General Protocol: • Live cells were centrifuged at 300 G for 5 minutes, washed once with PBS and centrifuged again. Cells were then fixed in 4% PFA in PBS for 10 minutes at 37° C., and resuspended in PBS. Unless processed immediately, samples were at this point stored in PBS at 4° C. (up to three weeks) or at −80° C. (for long-term storage). If intracellular epitopes were stained, cells were permebealized in 90% MeOH for 30 minutes on ice. Unless processed immediately, samples were also be stored in 90% MeOH at −20° C. for up to two months. • Further staining procedure (permebealized or non-permebealized cells): • Cells were washed 1× in PBS and blocked in blocking buffer; either PBS+0.5% BSA or PBS+1:1000 Octagam (5 mg/ml) for 15 minutes at room temperature. Thereafter, cells were incubated with primary AB at the indicated dilutions in incubation buffer (IB, PBS+0.5% BSA) for 1 hour at room temperature. Cells were then washed 3× with IB and incubated with secondary AB (conjugated to a fluorescent flurophore) at 1:1000 dilution in IB for 30 minutes at room temperature. Finally, cells were washed 3× in IB and resuspended in PBS. Cells were analyzed immediately, or stored for up to 24 hours at 4° C. before analysis. • Analysis of cells was done on a BD LSR Fortessa or a BD C6 Accuri flow cytometer, and further processing was done using FlowJo v.7.6. • All incubation steps (but not storage) were done on a spinning wheel or gentle shaker.
(§3) The diversity of AML cells and their responses was investigated using a panel of AML cell lines and assessing their responses after BGB324-treatment.
(§4) Long-term treatment was done in complete medium, without starvation. The responders were treated with 0.05, 0.1 or 0.3 μM BGB324, whereas the non-responders were treated with only a single dose of 2.5 μM BGB324. The cells were fixed after 24, 48 or 72 hours, and the samples were stored in 90% MeOH at −20° C. until all samples were harvested, and stained for flow at the same time.

[4] = tested on: pAkt; test: pAkt in CD33-positive cells, MOLM13 systemic xenograft model, flow cytometry; assay type: in vivo, mice; settings: both tissues (spleens and bone marrows), 50 mg/kg for 4 days; change not significant
Protocol: as §1
(§5) Cells isolated from spleens and bone marrows were assessed for phosphorylation of Erk, PLCγ1 and Akt, and expression of PHGDH and SLFN11. The samples were also co-stained with CD33, and biomarker expression was only evaluated in CD33-positive cells.

[5] = tested on: pErk; test: pErk in CD33-positive cells, MOLM13 systemic xenograft model, flow cytometry; assay type: in vivo, mice; settings: 50 mg/kg for 4 days
Protocol: as §1, §5

[6] = tested on: pAkt (S473); test: pAkt(S473) in AML cell panel, short term treatment, flow cytometry; assay type: cell-based, human; settings: 1 hour
Protocol: as §2, §3
(§6) When investigating phospho-markers, the cells were starved overnight in the appropriate growth medium containing 0.1% FBS, pre-treated with BGB324 at 0.5 and 1 μM for one hour, and stimulated with 10% FBS for 20 minutes (to induce phosphorylation, with BGB324 present). Cells were then fixed and stained for flow cytometric analyses.

[7] = tested on: totPLCγ1; test: Total PLCγ1 in AML cell panel, long-term treatment, flow cytometry; assay type: cell-based, human
Protocol: as §2, §3, §4

[8] = tested on: pErk; test: pErk in AML cell panel, short term treatment, flow cytometry; assay type: cell-based, human
Protocol: as §2, §3, §6

In the case of `Nc1nc(Nc2ccc3c(c2)CC[C@@H](N2CCCC2)CC3)nn1-c1cc2c(nn1)-c1ccccc1CCC2` [BGB324, 1-(6,7-dihydro-5H-benzo[6,7]cyclohepta[1,2-c]pyridazin-3-yl)-N3-((7-(S)-pyrrolidin-1-yl)-6,7,8,9-tetrahydro-5H-benzo[7]annulene-2-yl)-1H-1,2,4-triazole-3,5-diamine], the “percentage of leukemic cells vs. vehicle-treated mice” value (“percentage” below) ([1]; blood) is reported as “significantly higher percentage of leukemic cells”, the “percentage” value ([1]; bone marrows) is reported as “no significant differences” and the “percentage” value ([1]; spleens) is reported as “no significant differences”. The “reduction of pAxl(Y779)” value ([2]; gated Axl-positive cells) was about 20%, the “reduction of pAxl” value ([2]; whole live cell population) was “around 20%” and the Axl expression ([3]; Kasumi, 2.5 μM, 24-72 hours) was “goes significantly up”. For the same molecule, the Axl expression ([3]; MOLM13, 0.3 μM, 24 hours) was “slight and significant reduction of Axl”, the Axl expression ([3]; Mv4-11, 0.3 μM, 24 hours and 72 hours) was “slight and significant reduction of Axl” and the Axl expression ([3]; OCI-AML5, 2.5 μM, 24-72 hours) was “goes significantly up”. The pAkt [4] was “went down”, the pErk ([5]; bone marrows) was “significant reduction” and the pErk ([5]; spleens) was “significant reduction”. The Akt phosphorylation ([6]; Kasumi, 0.5 and 1 μM) was “close to no effect”, the Akt phosphorylation ([6]; MOLM13, 0.5 and 1 μM, 10% FBS stimulation) was “inhibits Akt phosphorylation” and the Akt phosphorylation ([6]; Mv4-11, 0.5 and 1 μM, not significant at 0.5 μM) was “inhibits Akt phosphorylation”. For the same molecule, the pAkt ([6]; OCI-M1, 1 μM) was “slight and significant inhibition of pAkt”, the Akt phosphorylation ([6]; OCI-M1, 0.5 and 1 μM) was “close to no effect” and the PLCγ1 expression ([7]; Kasumi, 2.5 μM, 48 and 72 hours) was “significant increase of PLCγ1 expression”. For the same molecule, the “total protein expression of PLCγ1” value ([7]; MOLM13, 0.3 μM, 24 hours) was “slight but significant reduction”, the “total protein expression of PLCγ1” value ([7]; Mv4-11, 0.3 μM, 24 and 72 hours) was “significant reduction” and the PLCγ1 expression ([7]; OCI-AML5, 2.5 μM, only 72 hours) was “significant increase of PLCγ1 expression”. For the same molecule, the pErk ([8]; Kasumi, 1 hour) was “no significant differences in pErk”, the “phosphorylation of Erk” value ([8]; MOLM13, all treatment doses, 1 hour) was “strong and significant reduction” and the “phosphorylation of Erk” value ([8]; Mv4-11, all treatment doses, 1 hour) was “strong and significant reduction”. For the same molecule, the pErk ([8]; OCI-M1, 1 hour) was “no significant differences in pErk”.
